Source: patent publication US9987254B2, “Ophthalmic composition for correcting presbyopia” (Eurocanarias Oftalmológica, S.L., priority 2013, dated 2018)

Assays:
[1] = cited from earlier work
presbyopia = assay: Study in presbyopia patients over 40 years old, non-dominant eye treated, single daily application; type: in vivo, human; conditions: bromfenac combined with pilocarpine
Description: The study carried out by the present invention is based on a composition distinct from Dr. Benotzzi's, as well as on other selection criteria as regards patients, exclusively including patients over 40 years old with evident signs of clear presbyopia with a refractive defect among −0.50 of myopia and +0.75 of hyperopia with a maximum astigmatism of −0.75, in addition to their corresponding age-based presbyopia. Here, only those patients with the following characteristics were considered ideal candidates: an ACD (Anterior Chamber […] of the eye) greater than 2.5 mm, a White-to-White (horizontal diameter) greater than 11.4 mm and a value of photopic pupils higher than 3 mm. and of scotopic pupils lower than 6.5 mm, plus a correct convergence and binocularity and a density of the eye crystal lower than 25 measured with Pentacam. Additionally, only the non-dominant eye has been always treated, a situation that is not reflected in the studies of Dr. Benozzi, although we have evidence that recommends the use in both eyes. […]

[2] = system: prostaglandin synthesis at the level of ciliary body and the iris; conditions: in vitro; cited from earlier work
[3] = after instillation on the ocular surface

Nc1c(CC(=O)O)cccc1C(=O)c1ccc(Br)cc1 [bromfenac sodium sesquihydrate]
concentrations in aqueous humor remained [1, 3]: over 12 hours | measurable levels in the major ocular tissues [1, 3]: ≤ 24 h | passage through the human cornea ([1]; human cornea): efficiently pass through the human cornea

Nc1c(CC(=O)O)cccc1C(=O)c1ccc(Br)cc1 [bromfenac]
parasympathomimetic action of pilocarpine (presbyopia; compared with diclofenac of Dr. Benozzi's formula): significantly extends | depth of focus of the treated eye (presbyopia; non-dominant eye treated): significant increase | inhibition of prostaglandin synthesis [2]: inhibits prostaglandin synthesis
